Assay results taken from the NIST ThermoML archive (doi:10.1021/je800159w).
± gives the expanded uncertainty stated by the source.

Experiments:
[1] = Liquid
[2] = refractive index (Na D-line) (dimensionless); settings: 101.33 kPa, Liquid, Standard Abbe refractometry
[3] = xn = mol fraction of the nth substance listed; settings: 101 kPa, Liquid
[4] = refractive index (Na D-line) (dimensionless); xn = mol fraction of the nth substance listed; settings: 298.15 K, 101 kPa, Liquid, Standard Abbe refractometry

CCO [ethanol]
[1], 101 kPa
Settings | mass density [kg/m3] | viscosity [mPa·s]
298.15 K | 785.46 ± 1.4 | 1.082 ± 0.4
313.15 K | 772 ± 1.4 | 0.827 ± 0.4
328.15 K | 758.55 ± 1.5 | 0.641

Settings | refractive index
[2], 298.15 K | 1.36023 ± 0.00031

CCOS(=O)(=O)[O-].CC[n+]1cccc(C)c1 [1-ethyl-3-methylpyridinium ethylsulfate] + O
[3]
Settings | mass density, 298.15 K [kg/m3] | mass density, 313.15 K [kg/m3] | mass density, 328.15 K [kg/m3] | viscosity, 298.15 K [mPa·s] | viscosity, 313.15 K [mPa·s] | viscosity, 328.15 K [mPa·s]
x2 = 0.0526 | 1221.69 ± 3.9 | 1211.82 ± 3.9 | 1202.02 ± 3.8 | 127.6 ± 16 | 60.5 ± 1.8 | 34.93 ± 1.2
x2 = 0.1412 | 1220.12 ± 3.5 | 1210.22 ± 3.5 | 1200.35 ± 3.4 | 102.1 ± 10 | 50.28 ± 0.78 | 29.83 ± 1.1
x2 = 0.2445 | 1217.8 ± 3.1 | 1207.83 ± 3 | 1198.02 ± 3 | 77.9 ± 4.9 | 39.91 ± 1.4 | 23.49 ± 0.87
x2 = 0.3233 | 1215.58 ± 2.8 | 1205.62 ± 2.8 | 1195.72 ± 2.7 | 62.3 ± 2 | 32.92 ± 1.1 | 19.76 ± 0.77
x2 = 0.4174 | 1212.21 ± 2.5 | 1202.21 ± 2.4 | 1192.23 ± 2.4 | 46.87 ± 1.6 | 24.86 ± 0.89 | 15.51 ± 0.66
x2 = 0.4972 | 1208.39 ± 2.2 | 1198.31 ± 2.2 | 1188.24 ± 2.1 | 36.11 ± 1.2 | 20.36 ± 0.77 | 12.78 ± 0.59
x2 = 0.588 | 1202.53 ± 2 | 1192.32 ± 1.9 | 1182.14 ± 1.9 | 26.83 ± 0.93 | 15.52 ± 0.65 | 9.894 ± 0.53
x2 = 0.6975 | 1191.35 ± 1.7 | 1180.92 ± 1.7 | 1170.42 ± 1.6 | 17.72 ± 0.7 | 10.5 ± 0.54 | 6.847 ± 0.47
x2 = 0.7928 | 1174.05 ± 1.5 | 1163.41 ± 1.4 | 1152.61 ± 1.4 | 11.18 ± 0.55 | 6.778 ± 0.47 | 4.508 ± 0.44
x2 = 0.9005 | 1129.44 ± 1.1 | 1119.24 ± 1.1 | 1108.66 ± 1 | 4.927 ± 0.45 | 3.161 ± 0.42 | 2.197 ± 0.41
x2 = 0.9484 | 1086.2 ± 0.9 | 1077.5 ± 0.8 | 1068 ± 0.8 | 2.717 ± 0.41 | 1.818 ± 0.41 | 1.315 ± 0.4

[4]
Settings | refractive index
x2 = 0.0526 | 1.50583 ± 0.00065
x2 = 0.1412 | 1.50427 ± 0.00061
x2 = 0.2445 | 1.50193 ± 0.00057
x2 = 0.3233 | 1.49986 ± 0.00054
x2 = 0.4174 | 1.49685 ± 0.0005
x2 = 0.4972 | 1.49329 ± 0.00047
x2 = 0.588 | 1.48806 ± 0.00044
x2 = 0.6975 | 1.47838 ± 0.0004
x2 = 0.7928 | 1.46398 ± 0.00037
x2 = 0.9005 | 1.42959 ± 0.00035
x2 = 0.9484 | 1.39796 ± 0.00034

CCO [ethanol] + CCOS(=O)(=O)[O-].CC[n+]1cccc(C)c1
[3], x1 = 1
Settings | mass density [kg/m3] | viscosity [mPa·s]
298.15 K | 785.46 ± 1.4 | 1.082 ± 0.4
313.15 K | 772 ± 1.4 | 0.827 ± 0.4
328.15 K | 758.55 ± 1.5 | 0.641

Settings | refractive index
[4], x1 = 1 | 1.36023 ± 0.00031

CCOS(=O)(=O)[O-].CC[n+]1cccc(C)c1 [1-ethyl-3-methylpyridinium ethylsulfate]
[1], 101.33 kPa
Settings | mass density [kg/m3] | viscosity [mPa·s]
298.15 K | 1222.26 ± 4.2 | 161.4 ± 26
303.15 K | 1219.02 ± 4.2 | 123.6 ± 15
308.15 K | 1215.78 ± 4.1 | 96.9 ± 8.9
313.15 K | 1212.54 ± 4.1 | 77.1 ± 4.8
318.15 K | 1209.39 ± 4.1 | 62.2 ± 2.1
323.15 K | 1206.13 ± 4.1 | 50.55 ± 0.86
328.15 K | 1202.86 ± 4 | 42.32 ± 1.5
333.15 K | 1199.63 ± 4 | 35.52 ± 1.3
338.15 K | 1196.43 ± 4 | 30.11 ± 1.1
343.15 K | 1193.25 ± 3.9 | 25.69 ± 0.96

[2]
Settings | refractive index
298.15 K | 1.50666 ± 0.00068
303.15 K | 1.50525 ± 0.00068
308.15 K | 1.50386 ± 0.00068
313.15 K | 1.50246 ± 0.00068
318.15 K | 1.50106 ± 0.00068
323.15 K | 1.49965 ± 0.00068
328.15 K | 1.49825 ± 0.00068
333.15 K | 1.49683 ± 0.00068
338.15 K | 1.4954 ± 0.00068
343.15 K | 1.49361 ± 0.00068

CCOS(=O)(=O)[O-].CC[n+]1cccc(C)c1 [1-ethyl-3-methylpyridinium ethylsulfate] + CCO
[3]
Settings | mass density, 298.15 K [kg/m3] | mass density, 313.15 K [kg/m3] | mass density, 328.15 K [kg/m3] | viscosity, 298.15 K [mPa·s] | viscosity, 313.15 K [mPa·s] | viscosity, 328.15 K [mPa·s]
x2 = 0.0609 | 1214.93 ± 3.8 | 1205.03 ± 3.7 | 1195.2 ± 3.6 | 116.7 ± 14 | 55.2 ± 1.1 | 31.2 ± 1.1
x2 = 0.1108 | 1208.33 ± 3.5 | 1198.38 ± 3.4 | 1188.52 ± 3.4 | 96.9 ± 8.9 | 48.57 ± 1.7 | 28.12 ± 1
x2 = 0.2066 | 1193.93 ± 3 | 1183.86 ± 2.9 | 1173.91 ± 2.8 | 68 ± 3 | 36.25 ± 1.3 | 21.86 ± 0.83
x2 = 0.3083 | 1175.71 ± 2.5 | 1165.53 ± 2.4 | 1155.46 ± 2.3 | 45.35 ± 1.6 | 25.91 ± 0.93 | 16.41 ± 0.68
x2 = 0.4004 | 1155.73 ± 2 | 1145.51 ± 2 | 1135.36 ± 1.9 | 31.11 ± 1.1 | 18.88 ± 0.74 | 12.52 ± 0.58
x2 = 0.4998 | 1129.53 ± 1.6 | 1119.07 ± 1.6 | 1108.74 ± 1.5 | 20.04 ± 0.76 | 12.92 ± 0.59 | 8.971 ± 0.51
x2 = 0.6034 | 1094.96 ± 1.2 | 1084.3 ± 1.2 | 1073.73 ± 1.1 | 12.17 ± 0.57 | 8.317 ± 0.5 | 6.023 ± 0.46
x2 = 0.7034 | 1051.68 ± 0.86 | 1040.72 ± 0.81 | 1029.83 ± 0.75 | 7.452 ± 0.48 | 5.332 ± 0.45 | 3.99 ± 0.43
x2 = 0.8452 | 961.67 ± 0.64 | 950.09 ± 0.69 | 938.48 ± 0.74 | 3.322 ± 0.42 | 2.502 ± 0.41 | 1.943 ± 0.41
x2 = 0.9389 | 870.77 ± 1 | 858.52 ± 1.1 | 846.1 ± 1.1 | 1.812 ± 0.41 | 1.388 ± 0.4 | 1.086 ± 0.4

[4]
Settings | refractive index
x2 = 0.0609 | 1.50392 ± 0.00065
x2 = 0.1108 | 1.50181 ± 0.00062
x2 = 0.2066 | 1.4973 ± 0.00058
x2 = 0.3083 | 1.49126 ± 0.00053
x2 = 0.4004 | 1.48469 ± 0.00049
x2 = 0.4998 | 1.476 ± 0.00045
x2 = 0.6034 | 1.46448 ± 0.00041
x2 = 0.7034 | 1.45003 ± 0.00038
x2 = 0.8452 | 1.41977 ± 0.00034
x2 = 0.9389 | 1.38864 ± 0.00032
